Source: the supplement of paper PMC10627819

Tests used:
B. subtilis 168 [1] = test: fitness (endpoint OD595 vs no drug) (fraction); higher = more growth
How it was run: (§1)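 Bacterial growth was followed in 384-well plates seeded at OD595 0.01, with 30 µl per well, or 55 µl for S. pneumoniae, in TSB, LB Lennox or CY at 37 °C. OD595 was read every 30 min for 14 h, and each reading had the first reading subtracted as background. Fitness is the background-corrected optical density at entry into stationary phase divided by the robust mean of the no-drug control wells. This ratio is capped at 1.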

S. aureus Newman [2] = test: as above
How it was run: as §1

S. pneumoniae D39V [3] = test: as above
How it was run: as §1

S. aureus DSM 20231 [4] = test: as above
How it was run: as §1

B. subtilis 168 [5] = test: Bliss interaction score (quartile over a dose matrix) (fitness difference); higher = more antagonism (negative = synergy)
How it was run: (§2)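 The Bliss score was calculated by subtracting the expected fitness, the product of single-drug values, from the observed fitness. OD595 at entry into stationary phase, over the plate's robust no-drug mean and capped at 1, served as the fitness readout. Single-drug values were inferred from combination data, and scores are summarised by quartiles across technical, biological and donor/recipient replicates.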

S. aureus Newman [6] = test: as above
How it was run: as §2

S. pneumoniae D39V [7] = test: as above
How it was run: as §2

S. aureus DSM 20231 [8] = test: as above
How it was run: as §2
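Throughout, for Bliss interaction score (quartile over a dose matrix): first quartile when negative (synergy) and third quartile when positive (antagonism).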

COc1cccc2c1C(=O)c1c(O)c3c(c(O)c1C2=O)C[C@@](O)(C(=O)CO)C[C@@H]3O[C@H]1C[C@H](N)[C@H](O)[C@H](C)O1 [Doxorubicin] + Cc1onc(-c2ccccc2)c1C(=O)N[C@@H]1C(=O)N2[C@@H]1SC(C)(C)[C@@H]2C(=O)O [Oxacillin]
fitness
Conditions | first compound 0.25 µg/mL | first compound 0.5 µg/mL | first compound 0.625 µg/mL | first compound 1 µg/mL | first compound 1.25 µg/mL | first compound 2.5 µg/mL
B. subtilis 168 [1], partner 0.002 µg/mL | – | – | 0.995 | – | 0.895 | 0.749
B. subtilis 168 [1], partner 0.004 µg/mL | – | – | 0.932 | – | 0.89 | 0.675
B. subtilis 168 [1], partner 0.008 µg/mL | – | – | 0.881 | – | 0.871 | 0.512
S. aureus DSM 20231 [4], partner 0.0156 µg/mL | – | – | 0.738 | – | 0.756 | 0.599
S. aureus DSM 20231 [4], partner 0.0312 µg/mL | – | – | 0.604 | – | 0.585 | 0.532
S. aureus DSM 20231 [4], partner 0.0625 µg/mL | – | – | 0.479 | – | 0.481 | 0.466
S. aureus Newman [2], partner 0.0156 µg/mL | – | – | 0.705 | – | 0.671 | 0.671
S. aureus Newman [2], partner 0.0312 µg/mL | – | – | 0.637 | – | 0.633 | 0.645
S. aureus Newman [2], partner 0.0625 µg/mL | – | – | 0.582 | – | 0.583 | 0.569
S. pneumoniae D39V [3], partner 0.005 µg/mL | ≥ 1 | ≥ 1 | – | 0.997 | – | –
S. pneumoniae D39V [3], partner 0.01 µg/mL | 0.941 | 0.973 | – | 0.924 | – | –
S. pneumoniae D39V [3], partner 0.02 µg/mL | 0.889 | 0.897 | – | 0.891 | – | –
S. pneumoniae D39V [3], partner 0.04 µg/mL | 0.252 | 0.337 | – | 0.323 | – | –

fitness, B. subtilis 168 [1], one replicate
Conditions | partner 0.0078 µg/mL | partner 0.0155 µg/mL | partner 0.031 µg/mL | partner 0.075 µg/mL | partner 0.15 µg/mL | partner 0.3 µg/mL
first compound 0.625 µg/mL | ≥ 1 | ≥ 1 | 0.943 | 0.468 | 0.0267 | 0.0431
first compound 1.25 µg/mL | 0.965 | 0.934 | 0.857 | 0.496 | 0.0281 | 0.0304
first compound 2.5 µg/mL | 0.652 | 0.666 | 0.477 | 0.0449 | 0.0184 | 0.0211

Conditions | Bliss interaction score
B. subtilis 168 [5] | 0.0758
S. aureus DSM 20231 [8] | -0.0629
S. aureus Newman [6] | 0.0538
S. pneumoniae D39V [7] | 0.0665

COc1cccc2c1C(=O)c1c(O)c3c(c(O)c1C2=O)C[C@@](O)(C(=O)CO)C[C@@H]3O[C@H]1C[C@H](N)[C@H](O)[C@H](C)O1 [Doxorubicin] + O=C(O[C@@H]1Cc2c(O)cc(O)cc2O[C@@H]1c1cc(O)c(O)c(O)c1)c1cc(O)c(O)c(O)c1 [EGCG]
fitness
Conditions | partner 6.25 µg/mL | partner 12.5 µg/mL | partner 25 µg/mL | partner 50 µg/mL
B. subtilis 168 [1], first compound 0.625 µg/mL | 0.934 | 0.617 | – | –
B. subtilis 168 [1], first compound 1.25 µg/mL | 0.932 | 0.554 | – | –
B. subtilis 168 [1], first compound 2.5 µg/mL | 0.737 | 0.429 | – | –
S. aureus DSM 20231 [4], first compound 0.625 µg/mL | – | 0.688 | 0.707 | –
S. aureus DSM 20231 [4], first compound 1.25 µg/mL | – | 0.708 | 0.676 | –
S. aureus DSM 20231 [4], first compound 2.5 µg/mL | – | 0.728 | 0.715 | –
S. aureus Newman [2], first compound 0.625 µg/mL | – | 0.731 | 0.712 | –
S. aureus Newman [2], first compound 1.25 µg/mL | – | 0.705 | 0.703 | 0.594
S. aureus Newman [2], first compound 2.5 µg/mL | – | 0.678 | 0.66 | 0.617
S. pneumoniae D39V [3], first compound 0.25 µg/mL | – | 0.916 | 0.987 | 0.924
S. pneumoniae D39V [3], first compound 0.5 µg/mL | – | 0.904 | 0.845 | ≥ 1
S. pneumoniae D39V [3], first compound 1 µg/mL | – | – | 0.804 | 0.903

Conditions | Bliss interaction score
B. subtilis 168 [5] | -0.0819
S. aureus DSM 20231 [8] | -0.107
S. aureus Newman [6] | 0.0447
S. pneumoniae D39V [7] | 0.0782

C[C@@H]1O[C@@H]1P(=O)(O)O [Fosfomycin] + CC1=C\[C@@H](O)CC(=O)Cc2nc(co2)C(=O)N2CCC=C2C(=O)O[C@H](C(C)C)[C@H](C)/C=C/C(=O)NC\C=C\1 [Virginiamycin M1]
fitness
Conditions | partner 0.0625 µg/mL | partner 0.125 µg/mL | partner 0.25 µg/mL | partner 0.5 µg/mL | partner 1 µg/mL | partner 2 µg/mL
B. subtilis 168 [1], first compound 1.562 µg/mL | 0.728 | 0.688 | 0.727 | – | – | –
B. subtilis 168 [1], first compound 3.124 µg/mL | 0.603 | 0.565 | 0.576 | – | – | –
B. subtilis 168 [1], first compound 6.248 µg/mL | 0.488 | 0.43 | 0.427 | – | – | –
S. aureus DSM 20231 [4], first compound 0.781 µg/mL | 0.755 | 0.783 | 0.783 | – | – | –
S. aureus DSM 20231 [4], first compound 1.562 µg/mL | 0.533 | 0.581 | 0.605 | – | – | –
S. aureus DSM 20231 [4], first compound 3.124 µg/mL | 0.487 | 0.49 | 0.506 | – | – | –
S. aureus Newman [2], first compound 0.781 µg/mL | 0.538 | 0.567 | 0.555 | – | – | –
S. aureus Newman [2], first compound 1.562 µg/mL | 0.503 | 0.511 | 0.528 | – | – | –
S. aureus Newman [2], first compound 3.124 µg/mL | 0.173 | 0.168 | 0.149 | – | – | –
S. pneumoniae D39V [3], first compound 1.25 µg/mL | – | – | – | 0.958 | 0.944 | 0.928
S. pneumoniae D39V [3], first compound 2.5 µg/mL | – | – | – | 0.987 | 0.956 | 0.905
S. pneumoniae D39V [3], first compound 5 µg/mL | – | – | – | 0.852 | 0.831 | 0.854

fitness, one replicate
Conditions | first compound 0.781 µg/mL | first compound 1.25 µg/mL | first compound 1.562 µg/mL | first compound 2.5 µg/mL | first compound 3.124 µg/mL | first compound 5 µg/mL
S. aureus DSM 20231 [4], partner 0.5 µg/mL | 0.847 | – | 0.614 | – | 0.412 | –
S. aureus DSM 20231 [4], partner 1 µg/mL | 0.771 | – | 0.643 | – | 0.386 | –
S. aureus Newman [2], partner 0.5 µg/mL | 0.626 | – | 0.557 | – | 0.299 | –
S. aureus Newman [2], partner 1 µg/mL | 0.614 | – | 0.478 | – | 0.182 | –
S. aureus Newman [2], partner 2 µg/mL | 0.463 | – | 0.297 | – | 0.0494 | –
S. pneumoniae D39V [3], partner 0.15 µg/mL | – | 0.968 | – | 0.926 | – | 0.892
S. pneumoniae D39V [3], partner 0.3 µg/mL | – | 0.89 | – | 0.908 | – | 0.897

Conditions | Bliss interaction score
B. subtilis 168 [5] | 0.0317
S. aureus DSM 20231 [8] | -0.0507
S. aureus Newman [6] | -0.0636
S. pneumoniae D39V [7] | -0.0376

C[C@@H]1O[C@@H]1P(=O)(O)O [Fosfomycin] + CCN(CC)CCOC(=O)c1ccc(N)cc1 [Procaine]
fitness
Conditions | partner 85.5 µg/mL | partner 171 µg/mL | partner 342 µg/mL
B. subtilis 168 [1], first compound 1.562 µg/mL | 0.711 | 0.704 | 0.646
B. subtilis 168 [1], first compound 3.124 µg/mL | 0.592 | 0.554 | 0.576
B. subtilis 168 [1], first compound 6.248 µg/mL | 0.377 | 0.372 | 0.322
S. aureus DSM 20231 [4], first compound 0.781 µg/mL | 0.736 | 0.812 | 0.833
S. aureus DSM 20231 [4], first compound 1.562 µg/mL | 0.603 | 0.64 | 0.634
S. aureus DSM 20231 [4], first compound 3.124 µg/mL | 0.427 | 0.513 | 0.489
S. aureus Newman [2], first compound 0.781 µg/mL | 0.576 | 0.54 | 0.562
S. aureus Newman [2], first compound 1.562 µg/mL | 0.535 | 0.553 | 0.516
S. aureus Newman [2], first compound 3.124 µg/mL | 0.198 | 0.197 | 0.162
S. pneumoniae D39V [3], first compound 1.25 µg/mL | 0.979 | 0.97 | 0.924
S. pneumoniae D39V [3], first compound 2.5 µg/mL | 0.951 | 0.921 | 0.905
S. pneumoniae D39V [3], first compound 5 µg/mL | 0.81 | 0.827 | 0.813

Conditions | Bliss interaction score
B. subtilis 168 [5] | -0.0557
S. aureus DSM 20231 [8] | -0.0626
S. aureus Newman [6] | 0.0813
S. pneumoniae D39V [7] | -0.029
